The assay concerns the target T1, P-selectin binding to P-selectin glycoprotein ligand-1 (PSGL-1) (Homo sapiens, UniProt P16109).
T1 construct: truncated form of human P-selectin comprised of the lectin and EGF domains (P-LE)
T1 sequence (P16109 42-198): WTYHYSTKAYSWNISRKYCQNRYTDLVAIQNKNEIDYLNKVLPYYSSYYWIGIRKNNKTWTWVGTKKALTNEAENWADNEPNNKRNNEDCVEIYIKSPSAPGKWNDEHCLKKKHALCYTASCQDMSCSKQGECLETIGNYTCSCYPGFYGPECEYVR
Description: Biacore assay: inhibition of P-selectin (P-LE) binding to PSGL-1 (SGP-3). Conditions: at 1 mM. The protocol:
Compounds of the invention can be assayed for selectin inhibitory activity using any of the procedures known in the art. One convenient procedure is the determination of IC50 values for inhibition of P-selectin binding to P-selectin glycoprotein ligand-1 (PSGL-1) using Biacore.
The Biacore 3000 is an instrument that uses surface plasmon resonance to detect binding of a solution phase analyte to an immobilized ligand on a sensor chip surface. The analyte sample is injected under flow using a microfluidic system. Binding of analyte to ligand causes a change in the angle of refracted light at the surface of the sensor chip, measured by the Biacore instrument in resonance units (RUs).
SGP-3 is a purified sulfoglycopeptide form of human PSGL-1 that contains the P-selectin binding determinants (See Somers et al., 2000, Cell 103, 467-479). SGP-3 was biotinylated via amine chemistry at a unique C-terminal lysine residue and immobilized on streptavidin-coated SA sensor chip. […]
The Biacore assay measures the signal in RU produced by binding of P-LE to SGP-3 in the presence and absence of inhibitors. Percent inhibition of binding is calculated by dividing the inhibited signal by the uninhibited signal subtracting this value from one then multiplying by one hundred. […] The data from this titration are plotted, RU values vs. concentration, and the IC50 is determined by extrapolation from the plot. […]

The structures appear in SMILES notation.

In the case of `CC1(C)[C@@H](O[C@H]2O[C@H](C(=O)O)[C@@H](O)[C@H](O)[C@H]2O[C@@H]2O[C@H](C(=O)O)[C@@H](O)[C@H](O)[C@H]2O)CC[C@]2(C)[C@H]3C(=O)C=C4[C@@H]5C[C@@](C)(C(=O)O)CC[C@]5(C)CC[C@@]4(C)[C@]3(C)CC[C@@H]12` [Glycerrhizzin], the “Percent inhibition of binding (positive control)” value is 50%.

Values taken from US7465799B2, “Methods and compositions for selectin inhibition” (Wyeth, priority 2003, dated 2008).
